Each structure is given as a SMILES string. Like-named read-outs stand apart in the source and are kept apart here. *1 amine or outer side, *2 acyl side, *3 side chain or, on linkers, in order; H or OH if unused. Where a SMILES comes first, the peptide text is derived from it. [ ]: non-standard residue; d: D form. GlyΨ(Thz) = O=C(c1csc(CN[*:1])n1)[*:2]; X3 = O=C(c1coc(CN[*:1])n1)[*:2]

One may read the IC50 as the concentration that gives 50% inhibition.

In one test the target is T1, Human topoisomerase I (Homo sapiens, UniProt P11387).
T1 construct: purchased TopoGEN Inc. (Port Orange, Fla., USA)
T1 sequence (P11387 1-765): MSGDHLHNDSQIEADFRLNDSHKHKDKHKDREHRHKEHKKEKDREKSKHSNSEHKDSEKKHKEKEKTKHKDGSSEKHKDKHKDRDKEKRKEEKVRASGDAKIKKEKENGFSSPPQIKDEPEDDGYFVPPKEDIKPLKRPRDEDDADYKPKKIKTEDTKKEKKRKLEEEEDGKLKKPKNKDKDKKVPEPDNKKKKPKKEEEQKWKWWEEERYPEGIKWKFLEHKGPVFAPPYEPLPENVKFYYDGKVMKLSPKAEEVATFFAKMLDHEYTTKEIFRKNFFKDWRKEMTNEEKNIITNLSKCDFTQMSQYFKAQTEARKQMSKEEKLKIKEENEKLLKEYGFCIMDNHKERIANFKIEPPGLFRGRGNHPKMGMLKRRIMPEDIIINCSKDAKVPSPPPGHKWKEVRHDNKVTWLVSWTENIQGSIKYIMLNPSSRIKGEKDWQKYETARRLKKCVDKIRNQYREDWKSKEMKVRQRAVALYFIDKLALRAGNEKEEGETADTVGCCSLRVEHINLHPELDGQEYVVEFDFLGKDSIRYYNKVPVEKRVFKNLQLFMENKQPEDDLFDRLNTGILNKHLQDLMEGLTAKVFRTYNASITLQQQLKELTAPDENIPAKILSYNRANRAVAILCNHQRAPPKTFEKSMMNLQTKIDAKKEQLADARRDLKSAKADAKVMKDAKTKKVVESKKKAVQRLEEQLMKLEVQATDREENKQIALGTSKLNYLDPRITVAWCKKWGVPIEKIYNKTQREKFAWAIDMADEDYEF
Put plainly: Human topoisomerase I-mediated relaxation assay. Format: biochemical. As for the experimental part:
Human topoisomerase I-mediated relaxation assays were performed as per the manufacturer's instructions. Topoisomerase I (2 nM) was added to reactions containing 10 mM of Tris.HCl, pH 7.9, 150 mM NaCl, 100 μM spermidine.HCl, 5% glycerol, 0.1% BSA, 4.6 nM of […] pBR322 DNA, and inhibitor where appropriate.
(§1) All in vitro reactions were incubated at 37° C. for 30 minutes. The DMSO concentration in each reaction was kept constant at 3.33%. Reactions were quenched with the addition of an equal volume of phenol/chloroform/isoamyl alcohol (25:24:1) and one tenth volume of loading buffer containing 40% sucrose, 100 mM Tris.HCl pH 7.5, 100 mM EDTA, 2 mg/mL bromophenol blue. The proteins were precipitated by vortexing, followed by centrifugation for 5 minutes at 16 000 g. The aqueous phase was loaded onto 1% agarose gels in Tris-acetate and were electrophoresed at 60 V for three hours in Tris-acetate buffer. The gels were stained in 1 μg/mL ethidium bromide. The gels were visualised using UV light and were documented and analysed using Syngene software.

Test [1] concerns the target T2, E. coli Topoisomerase IV (Escherichia coli, UniProt P0AFI2+P20083). Put plainly: biochemical. It is filed as biochemical. Also on record: purchased John Innes Enterprises (Norwich, UK).
Procedure: (§5) Topoisomerase IV-mediated relaxation assays and decatenation assays were performed as previously described (see Peng and Marians, 1993). […] Decatenation assays contained topoisomerase IV (4 nM), 40 mM Tris HCl pH 7.5 at 30° C., 6 mM MgCl2, 10 mM DTT, 1 mM spermidine.HCl, 100 mM potassium glutamate, 0.5 mM ATP, 0.5 mg/mL BSA, 200 ng of kinetoplast DNA, and inhibitor where appropriate.
Test [2] addresses T3, Human topoisomerase IIα (Homo sapiens, UniProt P11388). Put plainly: Human Topoisomerase IIα-mediated relaxation assay. It is filed as biochemical. Details: purchased TopoGEN Inc. (Port Orange, Fla., USA). Here is the method: (§2) Human Topoisomerase IIα-mediated relaxation assays and decatenation assays were performed as per the manufacturer's instructions in a total of 20 μL. Relaxation assays contained Topoisomerase IIα (4.3 nM), 50 mM Tris.HCl pH 8,120 mM KCl, 10 mM MgCl2, 0.5 mM DTT, 0.5 mM ATP, 4.6 nM of supercoiled pBR322 DNA, and inhibitor where appropriate. Decatenation assays substituted the supercoiled DNA with 200 ng catenated kinetoplast DNA.
as §1

Test [3] has as its target T3, Human topoisomerase IIα. Kind of test: Human Topoisomerase IIα decatenation assay. Also on record: purchased TopoGEN Inc. (Port Orange, Fla., USA). Format: biochemical. Here is the method: as §2, §1
Test [4] concerns the target T4, DNA gyrase (Escherichia coli, UniProt P0AES4+P0AES6). Put plainly: biochemical. Also on record: species or system E. coli. The settings on record: for IC50 SC gyrase: Table 5-C.
Test [5] addresses DNA gyrase MG1655 wild type A2B2 (Escherichia coli, UniProt P0AES4+P0AES6). Put plainly: biochemical. Details: species or system E. coli.
Procedure: ATP hydrolysis by DNA gyrase was linked to the oxidation of NADH using a pyruvate Kinase (PK)/lactate dehydrogenase (LDH) coupled enzyme assay and measured at 340 nm on a Spectramax Plus Microplate. […] Each 100 μL reaction contained 50 mM Tris.HCl (pH 7.5), 24 mM KCl, 5 mM MgCl2, 6.5% (w/w) glycerol, 4 mM dithiotreitol, 0.4 mM NADH, 0.8 mM phosphorenol-pyruvate, 1% (w/w) PK/LDH mixture (Sigma), 51 nM-153 nM gyrase enzyme and the drug tested at varying concentrations. DMSO was kept constant at 2%. The reactions were measured in the presence or absence of linear DNA pBR322 at fixed concentration of 8.4 nM. Reactions were initiated by the addition of 10 mM Mg.ATP and measured at 25° C. over 1.5 hours.
DNA-dependent ATPase reactions were tested with the wild type enzyme A2B2 and the W751R mutant enzyme. In these DNA-dependent ATPase assays, the concentration of wild type A2B2 is 51 nM, the concentration of W751R mutant enzyme is 106 nM.
Experimental data were fitted and treated with the following equation:
where L represents the inhibitor concentration, v represents the rate of the ATPase reaction, and v0 represents the rate in absence of inhibitor. The IC50 is deduced from the equation 2:
In test [6] the target is DNA gyrase W751R mutant A2B2 (Escherichia coli, UniProt P0AES4+P0AES6, W751R). It is filed as biochemical, E. coli.
Procedure: ATP hydrolysis by DNA gyrase was linked to the oxidation of NADH using a pyruvate Kinase (PK)/lactate dehydrogenase (LDH) coupled enzyme assay and measured at 340 nm on a Spectramax Plus Microplate. […] DMSO was kept constant at 2%.
DNA-dependent ATPase reactions were tested with the wild type enzyme A2B2 and the W751R mutant enzyme.
Test [7] concerns A. thaliana ecotype Columbia seeds. Kind of test: Seed germination of A. thaliana. It is filed as in vivo, Arabidopsis thaliana. The settings on record: 36 hours; 100 μM Peptide 1; 5 μM CFX.
Procedure: The microcin derivatives were tested for efficacy in planta against Arabidopsis thaliana ecotype Columbia according to known methods (see Wall et al., 2004).
In test [8] the target is T4, DNA gyrase. It is filed as biochemical, E. coli. The settings on record: for IC50 cleavage: Table 5-C; for Cleavage (IC50 μM): Table 4.
Procedure: GyrA and GyrB were added to solutions containing 35 mM Tris.HCl (pH, 7.5), 24 mM KCl, 4 mM MgCl2, 1.8 mM spermidine, 6.5% glycerol, 0.36 mg/mL BSA, 9 μg/mL tRNA, 5 mM DTT, 2 mM ATP and 10 nM relaxed pBR322 DNA. […] The reactions were incubated at 25° C., and at each time point 30-μl aliquots were quenched with 1 μL of 10% SDS and 2 μL of 2 mg/ml proteinase K. Quenched aliquots were kept on ice until the experiment was completed, at which time they were incubated at 37° C. for half an hour. An equal volume of chloroform/isoamyl alcohol (24:1) and a half volume of loading buffer STEB (40% sucrose/100 mM Tris HCl, pH 7.5/1 mM EDTA/2 mg/ml bromophenol blue) were added, and the mixtures then were vortexed and centrifuged for 1 min at 13,000 rpm. The aqueous phase was loaded onto 1% agarose, TAE (40 mM Tris-acetate, 1 mM EDTA) gels that contained 1 μg/ml ethidium bromide and were run at either 30 V overnight in TAE containing 1 μg/ml ethidium bromide (in the cold room) or 70 V for 2.5 hours in TAE containing 1 μg/ml ethidium bromide.
A further test relates to HT-29 cells. Kind of test: cells. The following applies: MTT, 24 hours; read-out: In vivo HT29 Cells (approximate IC50). It is filed as cell-based, human. As for the experimental part: (§3) Human cell cultures were initiated from frozen cell stocks (the gift of Dr J. Gavrilovic, UEA). The HT-29 line is derived from a colorectal adenocarcinoma while HeLa cells are derived from a cervical epithelial adenocarcinoma (see FIG. 35). Both human cell lines form adherent cultures and were maintained at 37° C. in T25 culture vessels as 10 mL cultures in CO2 Independent Media containing 10% foetal bovine serum (EU approved), 4 mM L-glutamine, penicillin/streptomycin (Invitrogen). A subcultivation ratio of 1:3 and 1:6 were maintained for HT-29 and HeLa lines respectively. Media was renewed every three days.
(§4) The assay to determine the effects of the heterocyclic compounds on mammalian cells is based on the cleavage of the yellow tetrazolium salt MTT to purple formazoan crystals by metabolically active cells (Roche). After incubation with MTT and solubilization, the resulting coloured solution is quantified using a scanning spectrophotometer. Each of the cell lines was trypsinised and resuspended in fresh media prior to transfer to sterile flat-bottomed microtitre plates (200 μL per well) and allowed to recover for 16 hours. Five thousand HT-29 or 7500 HeLa cells per 100 μL culture medium were incubated in the presence of the drugs in various concentrations (totalling 10 μL) for 24 hours. Cell viability was then determined by addition of MTT reagent (20 μL) in each well, as per manufacturer's instructions and incubated for a further 4 hours. Solubilization solution (100 μL) was added per well and the plates incubated overnight at 37° C. The plates were read in a spectrophotometer (scanning from 500-650 nm, signal peak at 570 nm). A representative result is illustrated in FIG. 36.

In the next test the test system is HeLa cells. Kind of test: cells. The settings on record: MTT, 24 hours; read-out: In vivo HeLa Cells (approximate IC50). It is filed as cell-based, human. As for the experimental part: as §3, §4
Test [9] concerns the target T2, E. coli Topoisomerase IV. Kind of test: biochemical. Details: purchased John Innes Enterprises (Norwich, UK).
Procedure: as §5
For test [10], the target named is DNA gyrase (MG 1655 A2B2) (Escherichia coli, UniProt P0AES4+P0AES6). Kind of test: biochemical. Details: species or system E. coli.
Procedure: GyrA and GyrB were added to a solution containing 35 mM Tris.HCl (pH, 7.5), 24 mM KCl, 4 mM MgCl2, 1.8 mM spermidine, 6.5% glycerol, 0.36 mg/mL BSA, 9 μg/mL tRNA, 5 mM DTT, 2 mM ATP and 24 nM relaxed pBR322 DNA. […] The reactions were incubated at 25° C., and at each time point 30-μl aliquots were quenched with 1 μL of 10% SDS. An equal volume of chloroform/isoamyl alcohol (24:1) and a half volume of loading buffer STEB (40% sucrose/100 mM Tris.HCl, pH 7.5/100 mM EDTA/2 mg/ml bromophenol blue) were added, and the mixtures then were vortexed and centrifuged for 1 min at 13,000 rpm. The aqueous phase was loaded onto 1% agarose, TAE (40 mM Tris-acetate, 1 mM EDTA) gels and were run at either 30 V overnight in TAE (in the cold room) or 70 V for 2.5 hours. The gels were stained for about 20 min in TAE containing 1 μg/ml ethidium bromide followed by destaining in multiple washes of TAE.
In the next test the target is DNA gyrase A2B2 (Escherichia coli, UniProt P0AES4+P0AES6). Kind of test: biochemical. Format: biochemical, E. coli.
Test [11] has as its target Wheatgerm topoisomerase I (Triticum aestivum, UniProt A0A3B6RK19). Put plainly: Wheatgerm topoisomerase I-mediated relaxation assay. It is filed as biochemical. Here is the method:
Wheatgerm topoisomerase I-mediated relaxation assays were performed as per the manufacturer's instructions. Topoisomerase I (2 nM) was added to reactions containing 50 mM Tris. HCl pH 7.5, 50 mM NaCl, 0.1 mM EDTA, 1 mM DTT, 20% glycerol, 4.6 nM of […] pBR322 DNA, and inhibitor where appropriate.
as §1

Setting [12] is: Topo IIα Human, R (relaxation reaction) IC50.

T3 sequence (P11388 whole entry): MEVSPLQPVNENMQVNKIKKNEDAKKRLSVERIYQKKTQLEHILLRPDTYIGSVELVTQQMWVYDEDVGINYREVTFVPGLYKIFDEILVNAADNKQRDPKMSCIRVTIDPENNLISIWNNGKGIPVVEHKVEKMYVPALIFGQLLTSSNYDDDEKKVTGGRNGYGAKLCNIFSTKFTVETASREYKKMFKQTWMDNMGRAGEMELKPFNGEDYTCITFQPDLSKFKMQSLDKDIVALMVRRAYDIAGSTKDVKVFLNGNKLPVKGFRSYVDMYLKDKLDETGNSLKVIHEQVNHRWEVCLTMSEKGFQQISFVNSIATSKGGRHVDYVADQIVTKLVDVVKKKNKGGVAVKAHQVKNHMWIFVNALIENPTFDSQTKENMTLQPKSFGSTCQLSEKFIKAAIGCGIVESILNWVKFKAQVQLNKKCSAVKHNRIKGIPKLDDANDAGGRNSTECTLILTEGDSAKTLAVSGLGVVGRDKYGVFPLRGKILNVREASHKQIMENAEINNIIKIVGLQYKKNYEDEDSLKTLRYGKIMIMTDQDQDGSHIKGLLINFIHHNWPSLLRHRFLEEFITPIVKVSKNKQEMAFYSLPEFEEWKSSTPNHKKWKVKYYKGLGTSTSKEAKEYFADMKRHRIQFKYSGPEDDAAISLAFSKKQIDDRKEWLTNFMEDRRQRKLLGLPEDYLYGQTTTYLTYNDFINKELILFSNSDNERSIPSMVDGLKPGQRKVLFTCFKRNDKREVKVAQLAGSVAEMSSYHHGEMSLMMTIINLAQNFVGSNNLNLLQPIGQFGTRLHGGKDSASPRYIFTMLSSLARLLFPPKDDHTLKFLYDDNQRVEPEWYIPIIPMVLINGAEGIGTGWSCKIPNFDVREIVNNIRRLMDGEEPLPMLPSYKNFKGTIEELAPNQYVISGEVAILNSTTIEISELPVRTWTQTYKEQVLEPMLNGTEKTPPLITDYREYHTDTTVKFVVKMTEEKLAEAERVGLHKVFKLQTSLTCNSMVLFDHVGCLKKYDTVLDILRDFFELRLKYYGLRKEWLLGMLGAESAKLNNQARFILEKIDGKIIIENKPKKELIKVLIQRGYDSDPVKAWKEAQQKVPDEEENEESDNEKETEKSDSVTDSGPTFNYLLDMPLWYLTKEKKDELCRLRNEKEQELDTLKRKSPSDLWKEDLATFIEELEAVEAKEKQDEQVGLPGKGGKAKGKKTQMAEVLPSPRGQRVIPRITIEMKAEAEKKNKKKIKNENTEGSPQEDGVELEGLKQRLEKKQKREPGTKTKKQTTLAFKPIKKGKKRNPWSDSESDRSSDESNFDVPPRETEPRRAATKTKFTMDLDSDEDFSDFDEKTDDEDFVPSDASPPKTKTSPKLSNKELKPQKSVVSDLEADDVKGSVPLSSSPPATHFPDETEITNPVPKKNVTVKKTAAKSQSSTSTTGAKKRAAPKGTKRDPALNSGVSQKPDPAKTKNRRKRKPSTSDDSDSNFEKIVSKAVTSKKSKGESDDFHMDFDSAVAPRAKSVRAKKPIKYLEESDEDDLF
T2 sequence (P20083 whole entry): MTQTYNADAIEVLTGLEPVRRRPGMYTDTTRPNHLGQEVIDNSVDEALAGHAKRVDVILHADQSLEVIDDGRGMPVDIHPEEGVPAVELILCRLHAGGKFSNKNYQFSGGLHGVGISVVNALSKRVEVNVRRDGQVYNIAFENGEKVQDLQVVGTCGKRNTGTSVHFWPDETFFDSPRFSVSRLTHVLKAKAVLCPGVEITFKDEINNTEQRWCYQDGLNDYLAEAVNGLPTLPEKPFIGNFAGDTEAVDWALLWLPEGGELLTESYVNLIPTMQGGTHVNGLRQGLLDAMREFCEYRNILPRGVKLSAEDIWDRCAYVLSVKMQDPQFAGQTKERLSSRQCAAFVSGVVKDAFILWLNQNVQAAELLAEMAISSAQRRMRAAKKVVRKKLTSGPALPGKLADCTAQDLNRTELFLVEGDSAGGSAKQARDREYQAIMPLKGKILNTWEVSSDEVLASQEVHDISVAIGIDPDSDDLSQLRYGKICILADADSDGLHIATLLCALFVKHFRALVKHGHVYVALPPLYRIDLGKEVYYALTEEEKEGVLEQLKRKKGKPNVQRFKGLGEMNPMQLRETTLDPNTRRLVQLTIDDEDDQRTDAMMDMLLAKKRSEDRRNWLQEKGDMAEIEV
T2 sequence (P0AFI2 whole entry): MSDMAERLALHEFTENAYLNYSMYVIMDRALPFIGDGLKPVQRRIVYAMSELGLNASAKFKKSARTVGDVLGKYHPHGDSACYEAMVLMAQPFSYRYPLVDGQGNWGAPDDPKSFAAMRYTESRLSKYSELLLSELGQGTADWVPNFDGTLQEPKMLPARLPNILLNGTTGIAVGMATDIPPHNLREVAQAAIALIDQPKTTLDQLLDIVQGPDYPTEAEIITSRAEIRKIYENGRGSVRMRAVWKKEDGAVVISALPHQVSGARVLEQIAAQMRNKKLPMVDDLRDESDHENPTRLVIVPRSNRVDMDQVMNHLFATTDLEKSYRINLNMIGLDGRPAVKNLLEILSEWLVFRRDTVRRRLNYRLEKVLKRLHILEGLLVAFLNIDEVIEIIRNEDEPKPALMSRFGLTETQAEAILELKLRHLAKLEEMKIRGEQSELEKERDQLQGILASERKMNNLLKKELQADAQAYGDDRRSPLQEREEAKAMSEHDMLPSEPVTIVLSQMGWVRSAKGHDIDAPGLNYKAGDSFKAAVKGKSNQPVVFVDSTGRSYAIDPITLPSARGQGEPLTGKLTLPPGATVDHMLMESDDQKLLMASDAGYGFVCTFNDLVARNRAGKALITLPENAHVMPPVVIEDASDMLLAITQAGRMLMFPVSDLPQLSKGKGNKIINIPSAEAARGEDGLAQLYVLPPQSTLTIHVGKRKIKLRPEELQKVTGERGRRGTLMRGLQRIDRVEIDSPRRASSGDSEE
Wheatgerm topoisomerase I, sequence (A0A3B6RK19 entry or part of it): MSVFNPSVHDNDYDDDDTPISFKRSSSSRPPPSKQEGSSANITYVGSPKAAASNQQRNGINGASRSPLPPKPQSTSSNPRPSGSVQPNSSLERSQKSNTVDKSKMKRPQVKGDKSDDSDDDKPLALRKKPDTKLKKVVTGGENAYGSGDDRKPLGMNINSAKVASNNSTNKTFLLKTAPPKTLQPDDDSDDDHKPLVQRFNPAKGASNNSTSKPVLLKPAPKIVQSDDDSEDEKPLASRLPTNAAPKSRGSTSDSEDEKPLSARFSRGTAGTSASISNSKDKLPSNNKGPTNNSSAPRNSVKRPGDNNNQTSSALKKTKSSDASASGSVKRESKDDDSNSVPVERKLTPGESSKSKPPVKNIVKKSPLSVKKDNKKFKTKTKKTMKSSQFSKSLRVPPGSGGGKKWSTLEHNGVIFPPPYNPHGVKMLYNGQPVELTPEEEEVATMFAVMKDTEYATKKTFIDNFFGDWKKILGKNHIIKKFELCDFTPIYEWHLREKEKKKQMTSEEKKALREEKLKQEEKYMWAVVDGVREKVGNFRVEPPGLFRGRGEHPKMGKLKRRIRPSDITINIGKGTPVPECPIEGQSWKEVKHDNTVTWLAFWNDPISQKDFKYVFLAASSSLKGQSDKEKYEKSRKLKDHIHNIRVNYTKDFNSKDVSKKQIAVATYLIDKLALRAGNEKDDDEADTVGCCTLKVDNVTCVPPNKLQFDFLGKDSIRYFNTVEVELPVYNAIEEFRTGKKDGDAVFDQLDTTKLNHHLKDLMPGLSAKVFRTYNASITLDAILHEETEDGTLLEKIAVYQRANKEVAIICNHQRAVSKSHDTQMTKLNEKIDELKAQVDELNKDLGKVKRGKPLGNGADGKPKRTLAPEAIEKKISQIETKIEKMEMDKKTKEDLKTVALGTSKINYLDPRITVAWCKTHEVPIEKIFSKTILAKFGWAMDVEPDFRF
Procedure for DNA gyrase A2B2: Relaxation assays were performed in a manner analogous to that described by Pierrat et al., 2005. Briefly, relaxation assays were performed as for the supercoiling assay but with some modifications: ATP and spermidine were omitted. Gyr A and Gyr B were added to a solutions containing 35 mM of Tris.HCl (pH=7.5), 24 mM of KCl, 4 mM of MgCl2, 1.8 mg/mL of spermidine, 6.5% of glycerol, 0.36 mg/mL of BSA, 9 μg/mL of tRNA, 5 mM of DTT, 2 mM of ATP and 24 nM of relaxed pBR322 DNA. […] The amount of DMSO was kept constant at 3.33%. The reactions were incubated at 25° C., and at each time point 30 μL aliquots were quenched with the addition of an equal volume of chloroform/isoamyl alcohol (24:1) and a half volume of loading buffer STEB (40% sucrose/100 mM Tris HCl, pH 7.5/100 mM EDTA/2 mg/mL bromophenol blue). The mixtures then were vortexed and centrifuged for 1 minute at 13,000 rpm. The aqueous phase was loaded onto 1% agarose, TAE (40 mM Tris-acetate, 1 mM EDTA) gels and were run at either 30 V overnight in TAE (in the cold room) or 70 V for 2.5 hours in TAE. The gels were stained for about 20 minutes in TAE containing 1 μg/mL ethidium bromide followed by destaining in multiple washes of TAE. The data were analysed using Syngel software.
Procedure for pBR322 DNA: Other compounds like Ethidium Bromide (EtBr), MccB17 and Ciprofloxacin (CFX) were also tested as controls. In this assay, negatively supercoiled pBR322 was relaxed by topoisomerase I in the presence or the absence of the putative DNA intercalative compound. […] Sample reactions were performed in the same buffer used for the DNA relaxation of DNA gyrase (Pierrat & Maxwell, 2003). […] In one set of reactions, negatively supercoiled pBR322 DNA was relaxed at 37° C. for 30 minutes, then intercalative agent was added, i.e., the substrate of the assay was relaxed. In a second set of reactions, the intercalative agent was incubated with the DNA in reaction buffer at 37° C. for 15 minutes prior to the addition of topoisomerase I, i.e., the substrate of the assay was negatively supercoiled. […] Samples were incubated for 60 minutes at 37° C., followed by treatment with 1% SDS and 0.3 mg/mL proteinase K at 37° C. for 30 minutes. Reactions were terminated and samples were prepared for agarose gel electrophoresis as previously described (Heddle et al., 2001). Each reaction product was separated on 1% agarose gel, followed by staining in 1 μg/mL ethidium bromide.

Regarding `CC(C)(C)OC(=O)NCc1nc(C(=O)O)cs1` [#5], the “Topo I Human IC50” value on Human topoisomerase I is given as “only inhibited human topoisomerase I”. Besides, the “Topo IV, D (decatenation reaction) IC50” value on E. coli Topoisomerase IV [1] is on record as “exquisitely sensitive”. Further, the IC50 at Human topoisomerase IIα [2] (read-out: Topo IIα Human, R (relaxation reaction) IC50) is below 20 µM. Moreover, on Human topoisomerase IIα [3], the “Topo IIα Human, D (decatenation reaction) IC50” value is “exquisitely sensitive”.
`CC(C)(C)OC(=O)NCc1nc(-c2nc(C(=O)O)cs2)co1` [#7]: on DNA gyrase [4], the “IC50 SC gyrase” value was “Inactive”.
As for `CC(C)(C)OC(=O)NCc1nc(-c2nc(C(=O)O)co2)cs1` [#8], on DNA gyrase [4], the “IC50 SC gyrase” value is “Inactive”.
`O=C(O)c1cn(C2CC2)c2cc(N3CCNCC3)c(F)cc2c1=O` [Ciprofloxacin, reference compound]: the “inhibition of DNA-dependent ATPase of wild type enzyme” value in [5] (FIG. 18, 0.5 and 1.0 μM) is given as “slow down”. The “inhibition of DNA-independent ATPase of wild type enzyme” value in test [5] (FIG. 18, no DNA) is “does not inhibit”. The “inhibition of DNA-independent ATPase of W751R mutant enzyme” value in test [6] (FIG. 18, no DNA) is “does not inhibit”. The “inhibition of DNA-dependent ATPase of W751R mutant A2B2” value in test [6] (W751R enzyme 106 nM, + DNA) is listed as “slow down”. Moreover, the “germination of A. thaliana ecotype Columbia seeds” value in test [7] is recorded as “growth is inhibited immediately after germination”. Further, the “concentration producing a weak intercalative property” value in the test on pBR322 DNA came out at 50 µM.
On to `C[C@H](NC(=O)CNC(=O)CNC(=O)c1coc(CNC(=O)[C@H](C)NC(=O)CNC(=O)[C@@H](N)CCC(N)=O)n1)C(=O)O` [Peptide 4] (H-QGA[X3]GGA-OH), for which, on DNA gyrase [8], the IC50 cleavage result was “No”. Further, the IC50 was 400 µM against DNA gyrase [4]; above 300 µM against Human topoisomerase I; above 75 µM in the test with HT-29 cells; above 75 µM in the test with HeLa cells; above 300 µM against E. coli Topoisomerase IV [9]; 175 µM at E. coli Topoisomerase IV [1]. Also, the values for the IC50 at Human topoisomerase IIα [2] (setting [12]) and at Human topoisomerase IIα [3] were 225 µM and below 50 µM, respectively.
Take `CC(NC(=O)CNC(=O)CNC(=O)c1coc(CNC(=O)C(C)NC(=O)CNC(=O)C(N)CCC(N)=O)n1)C(=O)O` (stereo not drawn) [Peptide 4] (H-QGA[X3]GGA-OH; configuration not given here): the “Supercoiling (IC50 μM) MG 1655 A2B2” value in test [10] (Table 4) is listed as “Slow”. The “Cleavage (IC50 μM)” value at DNA gyrase [8] is “inactive”. On Human topoisomerase IIα [2] (setting [12]), this molecule yielded an IC50 of 225 µM.
In the case of `CC(C)(C)OC(=O)NCc1nc(C(=O)O)cs1` [Peptide 5], the IC50 is 75 µM on DNA gyrase [4]; 40 µM on Human topoisomerase I; around 15 µM with HT-29 cells; around 75 µM with HeLa cells; above 75 µM at E. coli Topoisomerase IV [9]; 20 µM against E. coli Topoisomerase IV [1]. Further, the IC50 against Human topoisomerase IIα [2] (setting [12]) is 15 µM; on Human topoisomerase IIα [3], below 5 µM.
Consider `C[C@H](NC(=O)CNC(=O)CNC(=O)c1csc(CNC(=O)[C@H](C)NC(=O)CNC(=O)[C@@H](N)CCC(N)=O)n1)C(=O)O` [Peptide 5] (H-QGA[GlyΨ(Thz)]GGA-OH), for which the IC50 cleavage entry at DNA gyrase [8] is listed as “No”. The IC50 at DNA gyrase A2B2 is 40 µM; on DNA gyrase [4], 25 µM; against Human topoisomerase I it was 25 µM; in the test with HT-29 cells, around 15 µM; in the test on HeLa cells, around 75 µM; against Human topoisomerase IIα [2] (setting [12]), 7 µM. In addition, the IC50 against Human topoisomerase IIα [3] was below 2.5 µM.
For `CC(NC(=O)CNC(=O)CNC(=O)c1csc(CNC(=O)C(C)NC(=O)CNC(=O)C(N)CCC(N)=O)n1)C(=O)O` (stereo not drawn) [Peptide 5] (H-QGA[GlyΨ(Thz)]GGA-OH; configuration not given here), the half-maximal inhibitory concentration (IC50) is 15 µM in [10] (Supercoiling (IC50 μM) MG 1655 A2B2, Table 4); 15 µM at DNA gyrase A2B2; 15 µM in [5]; below 10 µM on E. coli Topoisomerase IV [9]; below 20 µM at Human topoisomerase IIα [2] (setting [12]). In addition, the “Cleavage (IC50 μM)” value on DNA gyrase [8] was “inactive”. In test [5] (Table 4), the “ATPase % inhibition at saturation” value stood at 40%. For the same molecule, in [11], the “Topo I Wheatgerm IC50” value is “inhibited”. In addition, the “Topo I Human IC50” value on Human topoisomerase I is on record as “inhibited”. The “Topo IV, D (decatenation reaction) IC50” value on E. coli Topoisomerase IV [1] is recorded as “exquisitely sensitive”. Moreover, the “Topo IIα Human, D (decatenation reaction) IC50” value on Human topoisomerase IIα [3] is recorded as “exquisitely sensitive”.

For the origin of these results see patent publication US20080234132A1, “Microcin B17 Analogs And Methods For Their Preparation And Use” (priority 2004, published 2008).
